In general, EC50 refers to the midpoint of the concentration-response curve.

The values that follow come from patent US6683077B2, “2-Amino-benzoxazinones for the treatment of viral infections” (G.D. Searle & Co., priority 1996, dated 2004).

Test [1] has as its system HCMV engineered virus RC256. The test can be described thus: microbe, parasite or virus in culture. It counts as cell-based, human cytomegalovirus. The following applies: Human betaherpesvirus 5, Fibroblast, read-out: Antiviral Activity RC256, first value (EC50).
In test [2] the target is T1, Human leukocyte elastase (HLE) (Homo sapiens, UniProt P08246).
T1 construct: gift of R. Senior, Washington University
T1 sequence (P08246 30-267): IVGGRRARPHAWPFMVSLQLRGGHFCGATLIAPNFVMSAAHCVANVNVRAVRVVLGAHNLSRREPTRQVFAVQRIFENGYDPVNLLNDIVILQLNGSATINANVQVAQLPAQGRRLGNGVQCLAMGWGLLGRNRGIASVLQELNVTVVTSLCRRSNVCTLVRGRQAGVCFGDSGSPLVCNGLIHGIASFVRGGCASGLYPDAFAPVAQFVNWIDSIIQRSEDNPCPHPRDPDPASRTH
Put plainly: Human leukocyte elastase assay. It counts as biochemical. As for the experimental part: Human leukocyte elastase (HLE) (gift of R. Senior, Washington University) was dissolved in saline at 1 mg/ml and further diluted 1/20 in assay buffer (0.2 M Tris, pH 8.0) before use. 10 μl of test compound in DMSO (or DMSO alone), 100 μl of assay buffer and 50 μl of enzyme were added to 96 well plates, mixed and pre-incubated for 30 minutes at ambient temperature. Reaction was initiated by addition of 40 μl of 2.5 mM methoxysuccinyl-Ala-Ala-Pro-Val-p-nitroanilide (Sigma; 25 mM in DMSO diluted 1/10 in assay buffer before use). The increase in absorbance at 405 nm was monitored for 10 minutes with a Biotek EL340 plate reader.

Where [3] appears, read: @ 10 (concentration unit not given).
Setting [4] is: @ 1 (concentration unit not given).
Where [5] appears, read: @ 100 (concentration unit not given).

Take `Cc1c(CNC(=O)OC(C)(C)C)ccc2nc(N[C@@H](Cc3ccccc3)C(=O)N(C)c3ccccc3)oc(=O)c12` [Example 7m, 1,1-Dimethylethyl([5-methyl-2-[[2-(methylphenylamino)-2-oxo-1S-(phenylmethyl)ethyl]amino]-5-methyl-4-oxo-4H-3,1-benzoxazin-6-yl]methyl]carbamate]: the 50% effective concentration (EC50) in test [1] was 5.2 µM. Further, the “HLE, % @ concentration” value in test [2] (setting [3]) is reported as 55% @ 10.
Take `CCN(C(=O)[C@H](Cc1ccc(OC)cc1)Nc1nc2ccc(N(C)C)c(C)c2c(=O)o1)c1ccccc1` [Example 16b, αS-[[6-(Dimethylamino)-5-methyl-4-oxo-4H-3,1-benzoxazin-2-yl]amino]-N-ethyl-4-methoxy-N-phenylbenzenepropanamide]: in test [1], the EC50 worked out at 20 µM. Also, the “HLE, % @ concentration” value in test [2] (setting [4]) turned out to be 49% @ 1.
For `CCN(Cc1ccccc1)C(=O)[C@H](Cc1ccc(OC)cc1)Nc1nc2ccc(CNC(=O)OCc3ccccc3)c(C)c2c(=O)o1` [Example 9p, Phenylmethyl[[2-[[2-[ethyl(phenylmethyl)amino]-1S-[(4-methoxyphenyl)methyl]-2-oxoethyl]amino]-5-methyl-4-oxo-3,1-benzoxazin-6-yl]methyl]carbamate], the EC50 in test [1] is over 100 µM. Moreover, the “HLE, % @ concentration” value in test [2] (@ 6 (concentration unit not given)) is recorded as 45% @ 6.
For `Cc1c(NC(=O)OC(C)(C)C)ccc2nc(N[C@@H](C)c3ccccc3)oc(=O)c12` [Example 6m, 6-[[(1,1-Dimethylethoxy)carbonyl]amino]-5-methyl-2-[[(1S)-phenylethyl]amino]-4H-3,1-benzoxazin-4-one], the EC50 in test [1] is 50 µM. Also, the “HLE, % @ concentration” value in test [2] (setting [5]) turned out to be 82% @ 100.
Take `Cc1c(CNC(=O)c2ccccn2)ccc2nc(N[C@@H](Cc3ccccc3)C(=O)N(C)Cc3ccccc3)oc(=O)c12` [Example 9s, N-[[5-Methyl-2-[[2-[methyl(phenylmethyl)amino]-2-oxo-1S-(phenylmethyl)ethyl]amino]-4-oxo-4H-3,1-benzoxazin-6-yl]methyl]pyridine-2-carboxamide]: the EC50 in test [1] turned out to be 7.5 µM. In addition, in test [2] (setting [3]), the “HLE, % @ concentration” value is 55% @ 10.
The corresponding values for `Cc1c(CNC(=O)OC(C)(C)C)ccc2nc(N[C@@H](Cc3ccccc3)C(=O)N(C)Cc3ccccc3)oc(=O)c12` [Example 7j, 1,1-Dimethylethyl[[5-methyl-2-[[2-[methyl(phenylmethyl)amino]-2-oxo-1S-(phenylmethyl)ethyl]amino]-4-oxo-4H-3,1-benzoxazin-6-yl]methyl]carbamate] are 14 µM and 31% @ 10.
Consider `COC(=O)[C@H](CCS(C)(=O)=O)Nc1nc2ccc(NC(=O)OC(C)(C)C)c(C)c2c(=O)o1` [Example 6u, N-[6-[[(1,1-Dimethylethoxy)carbonyl]amino]-5-methyl-4-oxo-4H-3,1-benzoxazin-2-yl]-L-methionine sulfone, methyl ester], for which the EC50 in test [1] came to 100 µM. Besides, the “HLE, % @ concentration” value in test [2] (setting [5]) is on record as 29% @ 100.
Consider `Cc1c(NCc2ccccc2)ccc2nc(N[C@@H](Cc3ccccc3)C(=O)N(C)Cc3ccccc3)oc(=O)c12` [Example 17d, N-Methyl-αS-[[5-methyl-4-oxo-6-[(phenylmethyl)amino]-3,1-benzoxazin-2-yl]amino]-N-(phenylmethyl)benzenepropanamide], for which, in test [1], the EC50 was 15 µM. Moreover, the “HLE, % @ concentration” value in test [2] (setting [3]) is 48% @ 10.
Taken in the same sequence, the figures for `COc1ccc(C[C@H](Nc2nc3ccc(NS(=O)(=O)c4ccccc4)c(C)c3c(=O)o2)C(=O)N(C)Cc2ccccc2)cc1` [Example 13c, 4-Methoxy-N-methyl-αS-[[5-methyl-4-oxo-6-[(phenylsulfonyl)amino]-4H-3,1-benzoxazin-2-yl]amino]-N-(phenylmethyl)benzenepropanamide] were 10 µM and 39% @ 10.
Take `COc1ccc(C[C@H](Nc2nc3ccc(CNC(=O)Cc4ccc(N(C)C)cc4)c(C)c3c(=O)o2)C(=O)N(C)Cc2ccccc2)cc1` [Example 9o, αS-[[6-[[[[4-(Dimethylamino)phenyl]acetyl]amino]methyl]-5-methyl-4-oxo-4H-3,1-benzoxazin-2-yl]amino]-4-methoxy-N-methyl-N-(phenylmethyl)benzenepropanamide]: the EC50 in test [1] is 14 µM. The “HLE, % @ concentration” value in test [2] (setting [4]) was found to be 73% @ 1.
`Cc1c(CNC(=O)OC(C)(C)C)ccc2nc(N[C@@H](Cc3ccc(Cl)cc3)C(=O)N(C)Cc3ccccc3)oc(=O)c12` [Example 7p, 1,1-Dimethylethyl[[2-[[1S-[(4-chlorophenyl)methyl]-2-[methyl(phenylmethyl)amino]-2-oxoethyl]amino]-5-methyl-4-oxo-4H-3,1-benzoxazin-6-yl]methyl]carbamate]: in test [1], the EC50 stood at 20 µM. For the same compound, the “HLE, % @ concentration” value in test [2] (setting [4]) is reported as 42% @ 1.
On to `COc1ccc(C[C@H](Nc2nc3ccc(CNC(=O)NCc4ccccc4)c(C)c3c(=O)o2)C(=O)N(C)Cc2ccccc2)cc1` [Example 12j, 4-Methoxy-N-methyl-αS-[[5-methyl-4-oxo-6-[[[[(phenylmethyl)amino]carbonyl]amino]methyl]-4H-3,1-benzoxazin-2-yl]amino]-N-(phenylmethyl)benzenepropanamide], for which, in test [1], the EC50 was determined as 17 µM. Further, in test [2] (setting [4]), the “HLE, % @ concentration” value is recorded as 63% @ 1.
Consider `CCOC(=O)NCc1ccc2nc(N[C@@H](Cc3ccc(OC)cc3)C(=O)N(C)Cc3ccccc3)oc(=O)c2c1C` [Example 9g, Ethyl[[2-[[1S-[(4-methoxyphenyl)methyl]-2-[methyl(phenylmethyl)amino]-2-oxoethyl]amino]-5-methyl-4-oxo-4H-3,1-benzoxazin-6-yl]methyl]carbamate], for which the EC50 in test [1] was determined as 15 µM. Also, in test [2] (setting [3]), the “HLE, % @ concentration” value amounted to 27% @ 10.
`Cc1c(CNC(=O)OCc2ccccc2)ccc2nc(N[C@@H](Cc3ccccc3)C(=O)N(C)Cc3ccccc3)oc(=O)c12` [Example 9r, Phenylmethyl[[5-methyl-2-[[2-[methyl(phenylmethyl)amino]-2-oxo-1S-(phenylmethyl)ethyl]amino]-4-oxo-4H-3,1-benzoxazin-6-yl]methyl]carbamate]: in test [1], the EC50 stood at 14 µM. Further, the “HLE, % @ concentration” value in test [2] (setting [4]) is 47% @ 1.
Regarding `COC(=O)[C@H](Cc1ccccc1)Nc1nc2ccc(NC(=O)CCC(=O)O)c(C)c2c(=O)o1` [Example 11d, N-[6-[[(2-Carboxyethyl)carbonyl]amino]-5-methyl-4-oxo-4H-3,1-benzoxazin-2-yl]-L-phenylalanine, methyl ester], the EC50 in test [1] was over 100 µM. Besides, in test [2] (setting [5]), the “HLE, % @ concentration” value was 76% @ 100.
For the compound `Cc1c(CNC(=O)CN2CCOCC2)cc(Br)c2nc(N[C@@H](Cc3ccccc3)C(=O)N(C)Cc3ccccc3)oc(=O)c12` [Example 15e, N-[[8-Bromo-5-methyl-2-[[2-[methyl(phenylmethyl)amino]-2-oxo-1S-(phenylmethyl)ethyl]amino]-4-oxo-4H-3,1-benzoxazin-6-yl]methyl]morpholine-4-acetamide], in test [1], the EC50 was 16 µM. Further, the “HLE, % @ concentration” value in test [2] (setting [5]) came to 78% @ 100.
Take `Cc1c(NC(=O)OC(C)(C)C)ccc2nc(N[C@H]3CCN(c4ccc(C#N)cc4)C3=O)oc(=O)c12` [Example 6y]: the EC50 in test [1] was 67 µM. Moreover, in test [2] (setting [3]), the “HLE, % @ concentration” value came to 25% @ 10.
`COc1ccc(C[C@H](Nc2nc3ccc(NC(=O)c4ccco4)c(C)c3c(=O)o2)C(=O)N(C)Cc2ccccc2)cc1` [Example 11u, N-[2-[[1S-[(4-Methoxyphenyl)methyl]-2-[methyl(phenylmethyl)amino]-2-oxoethyl]amino]-5-methyl-4-oxo-4H-3,1-benzoxazin-6-yl]furan-2-carboxamide]: in test [1], the EC50 worked out at 18 µM. Further, the “HLE, % @ concentration” value in test [2] (setting [3]) is reported as 19% @ 10.
For `CCN(C(=O)[C@H](Cc1ccccc1)Nc1nc2ccc(CNC(=O)OC(C)(C)C)c(C)c2c(=O)o1)c1ccccc1` [Example 7n], the EC50 in test [1] is 16 µM. Further, the “HLE, % @ concentration” value in test [2] (setting [3]) was 16% @ 10.
In the case of `CCN(Cc1ccccc1)C(=O)[C@H](Cc1ccccc1)Nc1nc2c(Br)cc(CNC(=O)CN3CCOCC3)c(C)c2c(=O)o1` [Example 15g, N-[[8-Bromo-2-[[2-[ethyl(phenylmethyl)amino]-2-oxo-1S-(phenylmethyl)ethyl]amino]-5-methyl-4-oxo-4H-3,1-benzoxazin-6-yl]methyl]morpholine-4-acetamide], the EC50 in test [1] worked out at 16 µM. The “HLE, % @ concentration” value in test [2] (setting [4]) is reported as 22% @ 1.
On to `CCN(C(=O)[C@H](Cc1ccc(OC)cc1)Nc1nc2ccc(CNC(=O)OC(C)(C)C)c(C)c2c(=O)o1)c1ccccc1` [Example 7u, 1,1-Dimethylethyl[[2-[[2-(ethylphenylamino)-1S-[(4-methoxyphenyl)methyl]-2-oxoethyl]amino]-5-methyl-4-oxo-4H-3,1-benzoxazin-6-yl]methyl]carbamate], for which, in test [1], the EC50 was 35 µM. The “HLE, % @ concentration” value in test [2] (setting [3]) came to 75% @ 10.
On to `COc1ccc(C[C@H](Nc2nc3ccc(CNC(=O)OC(C)(C)C)c(C)c3c(=O)o2)C(=O)N(C)CCc2ccccc2)cc1` [Example 7q, 1,1-Dimethylethyl[[2-[[1S-[(4-methoxyphenyl)methyl]-2-[methyl(2-phenylethyl)amino]-2-oxoethyl]amino]-5-methyl-4-oxo-4H-3,1-benzoxazin-6-yl]methyl]carbamate], for which the EC50 in test [1] worked out at 22 µM. The “HLE, % @ concentration” value in test [2] (setting [4]) was 39% @ 1.
